The target of one data set is T1, hPPARgamma (Homo sapiens, UniProt P37231).
T1 construct: expressed in transfected cells; host or cells: COS-7 (monkey kidney fibroblasts)
T1 sequence (P37231 238-503 limits assumed): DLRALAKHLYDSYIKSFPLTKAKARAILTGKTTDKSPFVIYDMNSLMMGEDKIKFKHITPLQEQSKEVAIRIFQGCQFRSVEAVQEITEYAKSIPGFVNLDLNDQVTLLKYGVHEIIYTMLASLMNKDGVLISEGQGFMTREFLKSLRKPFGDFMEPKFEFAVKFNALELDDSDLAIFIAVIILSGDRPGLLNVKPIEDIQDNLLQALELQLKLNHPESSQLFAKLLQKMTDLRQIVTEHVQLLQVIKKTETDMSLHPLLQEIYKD
In words: PPAR activation: Gal4-hPPARγ chimera luciferase transactivation in COS-7 cells, Method 1. In kind it is cell-based. Particulars: COS-7, 24 h; for Emax: maximum percentage response relative to the reference rosiglitazone, read-out: hPPARgamma % max. On the procedure: (§1) The activation of the PPARs was evaluated in vitro on a line of monkey kidney fibroblasts (COS-7) by measuring the transcriptional activity of chimeras constituted of the DNA binding domain of the Gal4 transcription factor of yeast and the ligand binding domain of the various PPARs. The compounds were tested at doses between 10^−5 and […] on the chimeras Gal4-PPARα, γ or δ, and the corresponding EC50 values were determined.
(§2) The COS-7 cells were obtained from the ATCC and were cultivated in DMEM medium supplemented with 10% (v/v) of fetal calf serum, 100 U/ml of penicillin (Gibco, Paisley, UK) and 2 mM of L-glutamine (Gibco, Paisley, UK). The cells were incubated at 37° C. in a humid atmosphere containing 5% CO2.
(§3) The plasmids Gal4(RE)_TkpGL3, pGal4-hPPARα, pGal4-hPPARγ, pGal4-hPPARδ and pGal4-φ are described in the literature (Raspe E et al., 1999). The constructs pGal4-hPPARα, pGal4-hPPARγ and pGal4-hPPARδ were obtained by cloning DNA fragments amplified by PCR corresponding to the DEF domains of the human nuclear receptors PPARα, PPARγ and PPARδ in the pGal4-φ vector.
(§4) The COS-7 cells in suspension were transfected with 150 ng of DNA per well, with a pGal4-PPAR/Gal4(RE)_TkpGL3 ratio of 1/10, in the presence of 10% fetal calf serum. The cells were seeded in 96-well plates (4×10^4 cells/well) and then incubated at 37° C. for 24 hours. Activation with the test compounds is carried out for 24 h at 37° C. in serum-free medium. At the end of the experiment, the cells were lysed and the luciferase activity was determined using the Steady-Lite™ HTS (Perkin Elmer) following the supplier's recommendations.

A further data set deals with T2, hPPARdelta (Homo sapiens, UniProt Q03181).
T2 construct: expressed in transfected cells; host or cells: COS-7 (monkey kidney fibroblasts)
T2 sequence (Q03181 211-439 limits assumed): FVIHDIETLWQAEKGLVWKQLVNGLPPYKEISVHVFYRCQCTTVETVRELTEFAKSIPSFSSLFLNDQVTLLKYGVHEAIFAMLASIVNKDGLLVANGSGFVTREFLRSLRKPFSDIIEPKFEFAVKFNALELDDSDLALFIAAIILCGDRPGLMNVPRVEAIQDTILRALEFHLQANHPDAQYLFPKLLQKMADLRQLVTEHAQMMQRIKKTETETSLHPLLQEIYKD
In words: PPAR activation: Gal4-hPPARδ chimera luciferase transactivation in COS-7 cells, Method 1. Format: cell-based. Particulars: COS-7, 24 h; for Emax: maximum percentage response relative to the reference GW501516, read-out: hPPARdelta % max. Here is the method:
as §1, §2, §3, §4

The target of another data set is T3, hPPARalpha (Homo sapiens, UniProt Q07869).
T3 construct: expressed in transfected cells; host or cells: COS-7 (monkey kidney fibroblasts)
T3 sequence (Q07869 239-466 limits assumed): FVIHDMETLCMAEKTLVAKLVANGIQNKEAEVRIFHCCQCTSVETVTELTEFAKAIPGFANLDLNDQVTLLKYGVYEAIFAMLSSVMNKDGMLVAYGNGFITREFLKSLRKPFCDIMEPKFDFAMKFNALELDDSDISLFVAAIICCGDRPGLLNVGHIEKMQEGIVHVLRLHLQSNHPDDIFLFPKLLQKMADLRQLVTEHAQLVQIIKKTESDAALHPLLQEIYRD
In words: PPAR activation: Gal4-hPPARα chimera luciferase transactivation in COS-7 cells, Method 1. In kind it is cell-based. The note with it: COS-7, 24 h; for Emax: maximum percentage response relative to the reference phenofibric acid, read-out: hPPARalpha % max. Here is the method:
as §1, §2, §3, §4

`CCC(Oc1ccc(CCC(=O)c2ccc(-c3ccc(C(F)(F)F)cc3)s2)cc1)C(=O)O` (stereo not shown) [Compound 65, 2-(4-(3-oxo-3-(5-(4-(trifluoromethyl)phenyl)thien-2-yl)propyl)-phenoxy)butanoic acid] showed a melting point of 116 to 117 °C. Moreover, on hPPARgamma, the Emax worked out at 73%. Moreover, on hPPARdelta, a half-maximal effect (EC50) was put at 0.109 µM and the Emax amounted to 79%. Besides, at hPPARalpha, the EC50 turned out to be 0.004 µM and the Emax came out at 52%.

`O=C(O)COc1ccc(CCC(=O)c2ccc(-c3ccc(C(F)(F)F)cc3)s2)cc1` [Compound 69, 2-(4-(3-oxo-3-(5-(4-(trifluoromethyl)phenyl)thien-2-yl)propyl)-phenoxy)acetic acid] registered a melting point of 182 to 183 °C. Further, at hPPARgamma, the midpoint of the response, the EC50, lay at 3.53 µM and the Emax came out at 15%. Also, on hPPARdelta, the response was half-maximal at 0.292 µM (EC50) and the Emax was 90%. In addition, on hPPARalpha, the EC50 came out at 0.033 µM and the Emax came out at 61%.

As for `CC(C)(Oc1ccc(CCC(=O)c2ccc(-c3ccc(C(F)(F)F)cc3)s2)cc1Cl)C(=O)O` [Compound 19, 2-(2-chloro-4-(3-oxo-3-(5-(4-(trifluoromethyl)phenyl)thien-2-yl)-propyl)phenoxy)-2-methylpropanoic acid], the melting point lay in the range of 136 to 137 °C. Moreover, at hPPARgamma, the EC50 came to 0.18 µM and the Emax was determined as 27%. Moreover, at hPPARdelta, a half-maximal effect (EC50) was put at 0.015 µM and the Emax turned out to be 85%. On hPPARalpha, the midpoint of the response, the EC50, lay at 0.001 µM and the Emax is 47%.

With `O=C(CCc1ccc(OC(C(=O)O)c2ccccc2)c(Cl)c1Cl)c1ccc(-c2ccc(C(F)(F)F)cc2)s1` (stereo not shown) [Compound 17, 2-(2,3-dichloro-4-(3-oxo-3-(5-(4-(trifluoromethyl)phenyl)thien-2-yl)propyl)phenoxy)-2-phenylacetic acid], the melting point fell in the range of 189 to 191 °C. At hPPARgamma, the EC50 came out at 0.19 µM and the Emax is 27%. For the same compound, the Emax at hPPARdelta is 0%. Also, at hPPARalpha, the EC50 was found to be 0.228 µM and the Emax was 5%.

Turning to `CC(C)(Oc1ccc(CCC(=O)c2ccc(-c3ccc(C(F)(F)F)cc3)s2)cc1Br)C(=O)O` [Compound 36, 2-(2-bromo-4-(3-oxo-3-(5-(4-(trifluoromethyl)phenyl)thien-2-yl)propyl)phenoxy)-2-methylpropanoic acid], the melting point lay in the range of 102 to 104 °C. Besides, at hPPARgamma, the Emax turned out to be 63%. For the same compound, on hPPARdelta, the EC50 amounted to 0.009 µM and the Emax amounted to 85%. Moreover, on hPPARalpha, the EC50 was determined as 0.005 µM and the Emax turned out to be 47%.

As to `CCC(Oc1ccc(CCC(=O)c2ccc(-c3ccc(C(F)(F)F)cc3)s2)cc1Br)C(=O)O` (stereo not shown) [Compound 32, 2-(2-bromo-4-(3-oxo-3-(5-(4-(trifluoromethyl)phenyl)thien-2-yl)propyl)phenoxy)butanoic acid], the melting point fell in the range of 126 to 128 °C. In addition, on hPPARgamma, the EC50 turned out to be 0.21 µM and the Emax was found to be 67%. At hPPARdelta, the response was half-maximal at 0.036 µM (EC50) and the Emax worked out at 75%. Moreover, on hPPARalpha, the EC50 is 0.008 µM and the Emax was 52%.

The compound `CC(C)(CCCOc1ccc(CCC(=O)c2ccc(-c3ccc(C(F)(F)F)cc3)s2)c(Cl)c1Cl)C(=O)O` [Compound 13, 5-(2,3-dichloro-4-(3-oxo-3-(5-(4-(trifluoromethyl)phenyl)thien-2-yl)propyl)phenoxy)-2,2-dimethylpentanoic acid] yielded a melting point of 167 to 169 °C. At hPPARgamma, the EC50 was 0.49 µM and the Emax came to 58%. Besides, on hPPARdelta, the Emax was 1%. In addition, on hPPARalpha, the response was half-maximal at 0.977 µM (EC50) and the Emax is 20%.

In turn, `CCC(Oc1ccc(CCC(=O)c2ccc(-c3ccc(C(F)(F)F)cc3)s2)c(Cl)c1Cl)C(=O)O` (stereo not shown) [Compound 9, 2-(2,3-dichloro-4-(3-oxo-3-(5-(4-(trifluoromethyl)phenyl)thien-2-yl)propyl)phenoxy)butanoic acid] gave a melting point of 169 to 171 °C. At hPPARgamma, a half-maximal effect (EC50) was put at 0.28 µM and the Emax was found to be 41%. For the same compound, at hPPARdelta, the EC50 was 0.019 µM and the Emax stood at 84%. Moreover, on hPPARalpha, the EC50 turned out to be 0.006 µM and the Emax was 54%.

Turning to `O=C(O)COc1ccc(CCC(=O)c2ccc(-c3ccc(C(F)(F)F)cc3)s2)c(Cl)c1Cl` [Compound 15, 2-(2,3-dichloro-4-(3-oxo-3-(5-(4-(trifluoromethyl)phenyl)thien-2-yl)propyl)phenoxy)acetic acid], the melting point was 217 to 219 °C. Also, on hPPARgamma, the EC50 was determined as 5.66 µM and the Emax worked out at 32%. Besides, on hPPARdelta, the EC50 was found to be 0.253 µM and the Emax was 88%. At hPPARalpha, a half-maximal response (EC50) required 0.163 µM and the Emax worked out at 46%.

On to `CC(C)(Oc1ccc(CCC(=O)c2ccc(-c3ccc(OC(F)(F)F)cc3)s2)c(Cl)c1Cl)C(=O)O` [Compound 44, 2-(2,3-dichloro-4-(3-oxo-3-(5-(4-(trifluoromethoxy)phenyl)thien-2-yl)propyl)phenoxy)-2-methylpropanoic acid], for which the melting point lay in the range of 135 to 136 °C. In addition, on hPPARgamma, it took 0.1 µM to reach a half-maximal effect (EC50) and the Emax was 46%. At hPPARdelta, the EC50 worked out at 0.027 µM and the Emax was found to be 109%. On hPPARalpha, a half-maximal effect (EC50) was put at 0.016 µM and the Emax was found to be 54%.

The compound `CC(C)(Oc1ccc(CCC(OCc2ccccc2)c2cc(-c3ccc(C(F)(F)F)cc3)cs2)c(Cl)c1Cl)C(=O)O` (stereo not shown) [Compound 61, 2-(4-(3-(benzyloxy)-3-(4-(4-(trifluoromethyl)phenyl)thien-2-yl)propyl)-2,3-dichlorophenoxy)-2-methylpropanoic acid] showed a melting point of 58 to 59 °C. Besides, on hPPARgamma, the EC50 turned out to be 0.03 µM and the Emax was determined as 78%. Also, on hPPARdelta, the midpoint of the response, the EC50, lay at 0.006 µM and the Emax turned out to be 101%. On hPPARalpha, a half-maximal response (EC50) required 0.591 µM and the Emax is 42%.

The record behind these values is US8088819B2, “Derivatives of substituted 3-phenyl-1-(phenylthienyl)propan-1-ones and of 3-phenyl-1-(phenylfuranyl) propan-1-ones, preparation and use” (priority 2006, dated 2012).
